Calls of active or inactive are those of the source. The calls are words filed in the database; no cut-off is given here.

As usually defined, the Ki is a measure of affinity in units of concentration, obtained from inhibition or displacement. A word on the ED50: it is the midpoint of the dose-response relation. Low values mean an effect at a small dose, high ones a need for a large dose.

In series [1] the target is 5-hydroxytryptamine receptor 2A (Rattus norvegicus, UniProt P14842).
Description: Displacement of [3H]ketanserin from 5HT2A receptor in CRL:CD(SD)BR-COBS rat cortex by scintillation spectrometry
In series [2] the target is Voltage-gated inwardly rectifying potassium channel KCNH2 (Homo sapiens, UniProt Q12809).
Description: Binding affinity to human ERG expressed in HEK293 cells by whole cell patch clamp method
A further series addresses D(3) dopamine receptor (Homo sapiens, UniProt P35462). The series can be described thus: biochemical.
Series [3] addresses T1, 5-hydroxytryptamine receptor 1A (Rattus norvegicus, UniProt P19327).
T1 sequence (P19327 whole entry): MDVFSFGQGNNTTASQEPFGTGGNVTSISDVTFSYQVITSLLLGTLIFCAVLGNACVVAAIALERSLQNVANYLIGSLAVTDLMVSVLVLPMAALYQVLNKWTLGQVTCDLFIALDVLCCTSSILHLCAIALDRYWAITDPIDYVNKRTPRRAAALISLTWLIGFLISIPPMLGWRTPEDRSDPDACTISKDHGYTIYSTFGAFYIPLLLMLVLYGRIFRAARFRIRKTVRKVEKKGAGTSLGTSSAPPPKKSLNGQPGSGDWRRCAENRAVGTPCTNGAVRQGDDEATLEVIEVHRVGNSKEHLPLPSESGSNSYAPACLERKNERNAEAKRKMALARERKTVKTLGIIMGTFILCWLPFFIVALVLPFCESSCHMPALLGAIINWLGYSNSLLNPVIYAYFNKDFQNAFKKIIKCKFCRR
Briefly: biochemical.
Description: Displacement of [3H]8OH-DPAT from 5HT1A receptor in CRL:CD(SD)BR-COBS rat hippocampus by scintillation spectrometry

For series [4], the species on record is Mus musculus. The series can be described thus: animal or person. The note with it: NMRI.
Description: Antipsychotic activity in NMRI mouse assessed as reduction in phencyclidine-induced locomotor activity administered 30 mins prior to testing measured for 60 mins
For a further series, the target named is D(1A) dopamine receptor (Rattus norvegicus, UniProt P18901).
Series [5] is filed under the species Mus musculus. The note with it: in vivo, 0.5 h.
Description: Sedative activity in NMRI mouse assessed as reduction in spontaneous locomotor activity administered 30 mins prior to testing
The species named for series [6] is Mus musculus. Briefly: animal or person. The note with it: NMRI. This is another data set of the same source.
Description: Antipsychotic activity in NMRI mouse assessed as reduction in methamphetamine-induced locomotor activity administered 30 mins prior to testing measured for 60 mins
Series [7] is filed under the species Mus musculus. The settings on record: in vivo, sc, 1 h.
Description: Toxicity in sc dosed NMRI mouse assessed as cataleptogenic potential administered 30 mins prior to testing measured every 15 mins for 60 mins by horizontal bar test
The target of series [8] is D(1A) dopamine receptor (Rattus norvegicus) (UniProt P18901). The series can be described thus: Displacement of [3H]SCH23390 from dopamine D1 receptor in CRL:CD(SD)BR-COBS rat striatum at 100 uM by scintillation spectrometry.
Chain of D(1A) dopamine receptor (Rattus norvegicus) (P18901 whole entry): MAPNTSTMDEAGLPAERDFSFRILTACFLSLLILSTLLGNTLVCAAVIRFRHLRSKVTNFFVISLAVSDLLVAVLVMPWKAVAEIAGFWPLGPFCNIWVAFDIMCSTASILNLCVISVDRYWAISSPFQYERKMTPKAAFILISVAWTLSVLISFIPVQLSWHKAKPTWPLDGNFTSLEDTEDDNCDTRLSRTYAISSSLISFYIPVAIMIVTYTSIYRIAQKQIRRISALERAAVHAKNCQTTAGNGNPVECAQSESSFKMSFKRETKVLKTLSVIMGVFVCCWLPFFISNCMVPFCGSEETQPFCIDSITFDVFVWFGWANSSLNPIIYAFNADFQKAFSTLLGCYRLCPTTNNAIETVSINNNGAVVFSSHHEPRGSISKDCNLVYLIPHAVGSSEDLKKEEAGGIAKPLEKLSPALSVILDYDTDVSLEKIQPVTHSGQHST

Chain of 5-hydroxytryptamine receptor 2A (P14842 whole entry): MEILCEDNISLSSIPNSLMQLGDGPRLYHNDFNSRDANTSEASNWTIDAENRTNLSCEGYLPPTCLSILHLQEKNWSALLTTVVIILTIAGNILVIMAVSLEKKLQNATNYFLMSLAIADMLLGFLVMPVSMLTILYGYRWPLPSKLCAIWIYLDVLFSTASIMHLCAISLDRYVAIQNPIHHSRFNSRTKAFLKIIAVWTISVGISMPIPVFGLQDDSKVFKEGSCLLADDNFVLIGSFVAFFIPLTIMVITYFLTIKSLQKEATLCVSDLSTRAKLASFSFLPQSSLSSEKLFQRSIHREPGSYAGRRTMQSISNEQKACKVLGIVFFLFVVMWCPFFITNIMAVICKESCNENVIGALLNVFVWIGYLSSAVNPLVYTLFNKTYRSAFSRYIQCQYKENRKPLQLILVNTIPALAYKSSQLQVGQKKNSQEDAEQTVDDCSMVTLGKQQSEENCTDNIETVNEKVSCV
Chain of Voltage-gated inwardly rectifying potassium channel KCNH2 (Q12809 whole entry): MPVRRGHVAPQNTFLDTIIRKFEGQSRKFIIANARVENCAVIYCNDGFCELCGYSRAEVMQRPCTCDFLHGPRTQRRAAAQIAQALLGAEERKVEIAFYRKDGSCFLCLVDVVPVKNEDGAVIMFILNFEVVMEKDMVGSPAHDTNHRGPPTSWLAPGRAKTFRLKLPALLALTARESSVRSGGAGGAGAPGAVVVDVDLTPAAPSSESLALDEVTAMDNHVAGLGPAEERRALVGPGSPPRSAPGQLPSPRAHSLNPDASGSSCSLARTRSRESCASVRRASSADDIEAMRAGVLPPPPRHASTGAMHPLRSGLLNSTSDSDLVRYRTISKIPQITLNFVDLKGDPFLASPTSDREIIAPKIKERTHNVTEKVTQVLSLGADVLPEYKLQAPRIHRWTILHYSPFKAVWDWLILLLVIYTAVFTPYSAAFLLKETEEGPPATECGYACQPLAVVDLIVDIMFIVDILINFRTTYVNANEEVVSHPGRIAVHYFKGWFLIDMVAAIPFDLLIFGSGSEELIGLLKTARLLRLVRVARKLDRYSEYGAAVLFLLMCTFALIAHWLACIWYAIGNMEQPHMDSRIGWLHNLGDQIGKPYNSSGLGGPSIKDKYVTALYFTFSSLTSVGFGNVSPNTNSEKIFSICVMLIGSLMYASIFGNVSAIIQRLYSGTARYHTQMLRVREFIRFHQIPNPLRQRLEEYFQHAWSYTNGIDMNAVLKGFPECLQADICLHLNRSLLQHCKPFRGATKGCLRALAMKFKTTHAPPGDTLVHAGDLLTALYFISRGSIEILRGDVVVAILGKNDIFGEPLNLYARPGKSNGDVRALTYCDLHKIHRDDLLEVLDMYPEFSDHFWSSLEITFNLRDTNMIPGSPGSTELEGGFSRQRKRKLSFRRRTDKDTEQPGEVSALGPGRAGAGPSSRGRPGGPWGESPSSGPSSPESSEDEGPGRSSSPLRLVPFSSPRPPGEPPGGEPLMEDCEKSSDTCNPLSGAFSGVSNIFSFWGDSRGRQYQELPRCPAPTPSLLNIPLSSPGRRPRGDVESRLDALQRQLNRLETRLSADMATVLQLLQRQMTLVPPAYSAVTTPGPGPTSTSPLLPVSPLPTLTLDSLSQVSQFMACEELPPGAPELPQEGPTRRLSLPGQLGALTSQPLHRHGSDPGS
Chain of D(3) dopamine receptor (P35462 whole entry): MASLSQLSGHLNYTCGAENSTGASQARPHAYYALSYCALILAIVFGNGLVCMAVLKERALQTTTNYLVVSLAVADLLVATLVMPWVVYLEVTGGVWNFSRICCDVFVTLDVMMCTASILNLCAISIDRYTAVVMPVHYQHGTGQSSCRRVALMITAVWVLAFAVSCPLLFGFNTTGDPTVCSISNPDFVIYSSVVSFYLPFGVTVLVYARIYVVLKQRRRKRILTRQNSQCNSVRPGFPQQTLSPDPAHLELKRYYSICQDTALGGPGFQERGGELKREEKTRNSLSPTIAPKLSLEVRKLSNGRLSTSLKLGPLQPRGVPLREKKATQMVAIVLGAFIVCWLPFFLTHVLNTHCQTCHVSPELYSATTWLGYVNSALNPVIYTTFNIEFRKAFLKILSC
Chain of D(1A) dopamine receptor (P18901 whole entry): as the sequence (P18901 whole entry) above
Description for D(3) dopamine receptor: Displacement of [3H]7OH-DPAT from dopamine D3 receptor expressed in Sf9 cells by scintillation spectrometry

With `Clc1cccc(N2CCN(CCCCOc3cc4ccccc4cn3)CC2)c1Cl`, the Ki in series [1] is 123 nM; in series [2], 160 nM; on D(3) dopamine receptor, 32.9 nM; in series [3] it was 24.2 nM.

The molecule `O=C(NCCCCN1CCN(c2ccc(Cl)cc2Cl)CC1)c1cc2cc(Cl)ccc2[nH]1` came in with a Ki at D(3) dopamine receptor of 0.38 nM. Further, the ED50 in the series listed under Mus musculus [4] is above 30 mg/kg.

`O=C1c2cc3ccccc3n2CCN1CCCCN1CCN(c2ccc(Cl)cc2Cl)CC1`: the Ki was determined as 4320 nM at D(1A) dopamine receptor, 300 nM in [1] and 3.2 nM at D(3) dopamine receptor.

Turning to `COc1cccc2cc3n(c12)CCN(CCCCN1CCn2c(cc4ccccc42)C1=O)C3`, the Ki on D(1A) dopamine receptor was above 10000 nM; in [1], 200 nM; in series [2] it was 260 nM; at D(3) dopamine receptor it was 8.6 nM; in [3] it was 33 nM.

Turning to `O=C(NCCCCN1CCN(c2ccc(Cl)cc2Cl)CC1)c1cc2ccccc2[nH]1`, in the series listed under Mus musculus [4], the ED50 was above 30 mg/kg.

With `COc1cccc2cc3n(c12)CCN(CCCCNC(=O)C1=Cc2ccccc2CN1)C3`, the Ki is above 10000 nM on D(1A) dopamine receptor; 164 nM in series [1]; 1840 nM in series [2]; 33.5 nM on D(3) dopamine receptor; 28 nM in series [3].

In the case of `Clc1cccc(N2CCN(CCCCCOc3cc4ccccc4cn3)CC2)c1Cl`, the Ki is 57 nM in series [1], 210 nM in series [2], 0.14 nM at D(3) dopamine receptor and 18 nM in series [3]. Further, the ED50 in the series filed under Mus musculus [5] is above 30 mg/kg; in the series listed under Mus musculus [6], above 10 mg/kg; in the series listed under Mus musculus [4], above 10 mg/kg.

In the case of `O=C(CCCN1CCC(O)(c2ccc(Cl)cc2)CC1)c1ccc(F)cc1` [HALOPERIDOL], the median effective dose (ED50) in the series filed under Mus musculus [5] is 0.08 mg/kg; in the series listed under Mus musculus [7] it was 0.19 mg/kg; in the series filed under Mus musculus [4] it was 0.09 mg/kg.

Consider `N#Cc1cccc(N2CCN(CCCCN3CCn4c(cc5ccccc54)C3=O)CC2)c1`, for which the Ki was above 10000 nM at D(1A) dopamine receptor, 389 nM in [1] and 3.7 nM on D(3) dopamine receptor.

In [2], `Cc1cc2c(s1)Nc1ccccc1N=C2N1CCN(C)CC1` [OLANZAPINE] yielded a Ki of 36000 nM.

On to `Clc1cccc(N2CCN(CCCCOc3ccc4cccnc4c3)CC2)c1Cl`, for which the outcome in series [8] was inactive. The inhibitory constant (Ki) in [1] turned out to be 127 nM; at D(3) dopamine receptor it was 8.2 nM; in series [3], 4 nM.

As for `O=C(NCCCCN1CCN(c2cccc(Cl)c2)CC1)c1cc2ccccc2cn1`, the Ki on D(1A) dopamine receptor worked out at 5500 nM; in series [1], 23.4 nM; in [2] it was 300 nM; on D(3) dopamine receptor, 0.27 nM; in series [3], 14.7 nM. Further, the ED50 in the series filed under Mus musculus [5] is 14 mg/kg; in the series listed under Mus musculus [6] it was 4.2 mg/kg; in the series listed under Mus musculus [4], 6.7 mg/kg.

`CN1CCN(C2=Nc3cc(Cl)ccc3Nc3ccccc32)CC1` [CLOZAPINE]: the ED50 in the series filed under Mus musculus [5] was 2.4 mg/kg; in the series filed under Mus musculus [7], above 30 mg/kg; in the series listed under Mus musculus [6], 2.5 mg/kg; in the series filed under Mus musculus [4] it was 1.1 mg/kg.

With `O=C(NCCCCN1CCN(c2cccc(Cl)c2Cl)CC1)c1cc2ccccc2cn1`, the Ki at D(1A) dopamine receptor came out at 4600 nM; in series [1] it was 41 nM; in series [2] it was 200 nM; on D(3) dopamine receptor it was 0.099 nM; in [3] it was 5 nM.

Regarding `O=C1c2cc3ccccc3n2CCN1CCCCN1CCN(c2cccc(Cl)c2Cl)CC1`, the inhibition constant Ki on D(1A) dopamine receptor was 4370 nM; in series [1], 83 nM; in [2], 200 nM; on D(3) dopamine receptor, 0.105 nM; in series [3], 9.3 nM. For the same molecule, the ED50 in the series filed under Mus musculus [5] was above 30 mg/kg; in the series listed under Mus musculus [6], 3.7 mg/kg; in the series filed under Mus musculus [4], above 3 mg/kg.

Consider `N#Cc1cccc(N2CCN(CCCCNC(=O)c3cc4ccccc4o3)CC2)c1`, for which the Ki is above 10000 nM at D(1A) dopamine receptor, 390 nM in series [2] and 0.54 nM at D(3) dopamine receptor.

Take `COc1cccc2c1C1CCN(CCCCNC(=O)C3=Cc4ccccc4CN3)CC1=N2` (stereo not given): the Ki was above 10000 nM at D(1A) dopamine receptor, 149 nM in series [1], 6 nM on D(3) dopamine receptor and 118 nM in series [3].

Values taken from ChEMBL document CHEMBL1139353, “Discovery of a new class of potential multifunctional atypical antipsychotic agents targeting dopamine D3 and serotonin 5-HT1A and 5-HT2A receptors: design, synthesis, and effects on behavior” (J Med Chem, 2009).
